Measured values from patent publication US20060078629A1, “Nutritional compositions and use thereof” (priority 2003, published 2006).

How the values were obtained:
[1] = slow (e.g. 20 minutes) intravenous injection, 400 mg glutathione in 20 ml saline
Source text: According to one aspect of the invention, the intravenous administration of glutathione is used to achieve the desired blood levels. […] Repeated injections may be necessary in severely ill patients.

[2] = system: chemically induced cancers; conditions: in vivo; cited from earlier work
[3] = system: DNA damage in various tissues; conditions: Food Chem Toxicol 2000, 38:15; cited from earlier work

SMILES | achieving the desired blood glutathione levels [1] | prevention of chemically induced cancers [2] | decrease of DNA damage in various tissues [3]
N[C@@H](CCC(=O)N[C@@H](CS)C(=O)NCC(=O)O)C(=O)O [glutathione] | effective | – | –
OCc1c[nH]c2ccccc12 [Example I3C, Indole-3-carbinol] | – | up to 90% | 67-82%
